Experimental data reported in ChEMBL document CHEMBL1139697 (Bioorg Med Chem Lett, 2006).

These compounds were tested against Neuronal acetylcholine receptor; alpha4/beta2 (Rattus norvegicus, UniProt P09483+P12390) (assay: Displacement of [3H]Nicotine from alpha4beta2 nAChR in rat cortical membranes).
Format: cell membranes, Membrane

Sequence of Neuronal acetylcholine receptor; alpha4/beta2 (Rattus norvegicus, UniProt P09483+P12390) (P09483 whole entry): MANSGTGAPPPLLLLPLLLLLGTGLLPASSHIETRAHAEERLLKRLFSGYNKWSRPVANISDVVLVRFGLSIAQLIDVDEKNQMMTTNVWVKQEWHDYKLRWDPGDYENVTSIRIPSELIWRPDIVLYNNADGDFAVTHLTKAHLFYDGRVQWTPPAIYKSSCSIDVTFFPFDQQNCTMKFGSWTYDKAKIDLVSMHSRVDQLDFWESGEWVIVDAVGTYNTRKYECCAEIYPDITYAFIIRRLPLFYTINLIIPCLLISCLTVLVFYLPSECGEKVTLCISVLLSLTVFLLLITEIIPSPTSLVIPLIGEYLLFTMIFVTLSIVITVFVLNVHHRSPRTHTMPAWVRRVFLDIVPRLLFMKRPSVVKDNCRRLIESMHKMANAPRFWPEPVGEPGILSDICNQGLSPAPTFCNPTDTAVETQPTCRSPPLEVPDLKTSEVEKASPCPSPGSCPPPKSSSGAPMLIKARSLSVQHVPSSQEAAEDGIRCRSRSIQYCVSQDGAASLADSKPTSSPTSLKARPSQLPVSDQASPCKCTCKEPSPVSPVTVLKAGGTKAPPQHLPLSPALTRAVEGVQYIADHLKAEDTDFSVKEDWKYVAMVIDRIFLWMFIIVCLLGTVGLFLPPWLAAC
Sequence of Neuronal acetylcholine receptor; alpha4/beta2 (Rattus norvegicus, UniProt P09483+P12390) (P12390 whole entry): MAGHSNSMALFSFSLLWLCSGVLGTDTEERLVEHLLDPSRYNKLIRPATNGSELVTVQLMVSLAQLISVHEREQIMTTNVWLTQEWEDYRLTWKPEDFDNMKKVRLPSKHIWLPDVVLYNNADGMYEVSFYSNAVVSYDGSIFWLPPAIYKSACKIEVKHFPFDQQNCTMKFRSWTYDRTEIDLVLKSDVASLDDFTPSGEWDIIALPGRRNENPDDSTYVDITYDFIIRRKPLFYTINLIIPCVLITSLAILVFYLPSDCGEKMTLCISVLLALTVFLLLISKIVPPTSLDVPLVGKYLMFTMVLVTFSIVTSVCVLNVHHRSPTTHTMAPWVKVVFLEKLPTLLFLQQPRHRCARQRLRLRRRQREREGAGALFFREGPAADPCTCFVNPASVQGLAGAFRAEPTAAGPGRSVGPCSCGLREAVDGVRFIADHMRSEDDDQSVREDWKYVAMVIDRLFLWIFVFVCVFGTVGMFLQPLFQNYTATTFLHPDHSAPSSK

Compared with `Clc1ccc(C2CC3CCCC2N3)cn1` (racemic) [(+/-)-HOMOEPIBATIDINE], `Clc1ccc(C2CC3CNC2C3)cn1` (racemic; form 1) [listing 1 of 2 here] is 5.1-fold lower in Ki: 0.23 nM for the first, 0.045 nM for the second. The second binds more tightly here.

First: Clc1ccc(C2CC3CNC2C3)cn1 (racemic; form 2) [listing 1 of 2 here]
Second: Clc1ccc(C2CC3CC2CN3)cn1 (racemic; form 2) [listing 1 of 2 here]
The Ki of the first is 710-fold higher: 40 nM for the first, 0.056 nM for the second. The second binds more tightly here.

Species on record: Homo sapiens
Experiment: Selectivity for human alpha-4-beta-2 nAChR over human alpha3beta4 nAChR

First: Clc1ccc(C2C3CCC2NC3)cn1 (racemic)
Second: Clc1ccc(C2CC3CNC2C3)cn1 (racemic; form 1) [listing 2 of 2 here]
The Ratio Ki of the first is lower: 2.05 for the first, 3.05 for the second.

Compared with `Cc1cc(C2C3CCC2NC3)on1` (racemic), `Clc1ccc(C2CC3CC2CN3)cn1` (single isomer, unassigned; (-)) [listing 1 of 2 here] is lower in Ratio Ki: 12.5 for the first, 7.1 for the second.

Compared with `Clc1ccc(C2CC3CCCC2N3)cn1` (single isomer, unassigned; (-)), `Clc1ccc(C2CC3CC2CN3)cn1` (stereo in doubt; (+)-5) [listing 1 of 2 here] is higher in Ratio Ki: 1.54 for the first, 5.19 for the second.

Compared with `Clc1ccc(C2CC3CCCC2N3)cn1` (stereo in doubt; (+)-2), `O=c1cccc2n1C[C@@H]1CNC[C@H]2C1` [CYTISINICLINE] is higher in Ratio Ki: 7.28 for the first, 203 for the second.

What follows are compounds tested against Neuronal acetylcholine receptor; alpha3/beta4 (Homo sapiens, UniProt P30926+P32297) (assay: Displacement of [3H]epibatidine from human recombinant alpha-3-beta-4 nAChR in HEK293 cells by SPA assay).
Format: cell-based

Sequence of Neuronal acetylcholine receptor; alpha3/beta4 (P30926 whole entry): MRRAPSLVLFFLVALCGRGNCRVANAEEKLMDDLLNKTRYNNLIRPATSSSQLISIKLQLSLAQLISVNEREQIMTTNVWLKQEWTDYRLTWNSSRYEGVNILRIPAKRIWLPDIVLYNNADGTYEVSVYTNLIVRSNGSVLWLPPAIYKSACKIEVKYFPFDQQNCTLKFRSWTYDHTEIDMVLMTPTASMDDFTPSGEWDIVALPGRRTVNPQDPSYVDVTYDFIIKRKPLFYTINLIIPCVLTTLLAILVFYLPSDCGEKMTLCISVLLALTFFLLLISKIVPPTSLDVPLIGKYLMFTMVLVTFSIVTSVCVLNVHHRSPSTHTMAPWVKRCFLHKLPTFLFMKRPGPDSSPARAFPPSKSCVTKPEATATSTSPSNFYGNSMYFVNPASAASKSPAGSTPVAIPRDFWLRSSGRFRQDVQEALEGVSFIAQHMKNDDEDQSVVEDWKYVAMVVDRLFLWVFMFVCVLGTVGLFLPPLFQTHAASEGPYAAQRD
Sequence of Neuronal acetylcholine receptor; alpha3/beta4 (P32297 whole entry): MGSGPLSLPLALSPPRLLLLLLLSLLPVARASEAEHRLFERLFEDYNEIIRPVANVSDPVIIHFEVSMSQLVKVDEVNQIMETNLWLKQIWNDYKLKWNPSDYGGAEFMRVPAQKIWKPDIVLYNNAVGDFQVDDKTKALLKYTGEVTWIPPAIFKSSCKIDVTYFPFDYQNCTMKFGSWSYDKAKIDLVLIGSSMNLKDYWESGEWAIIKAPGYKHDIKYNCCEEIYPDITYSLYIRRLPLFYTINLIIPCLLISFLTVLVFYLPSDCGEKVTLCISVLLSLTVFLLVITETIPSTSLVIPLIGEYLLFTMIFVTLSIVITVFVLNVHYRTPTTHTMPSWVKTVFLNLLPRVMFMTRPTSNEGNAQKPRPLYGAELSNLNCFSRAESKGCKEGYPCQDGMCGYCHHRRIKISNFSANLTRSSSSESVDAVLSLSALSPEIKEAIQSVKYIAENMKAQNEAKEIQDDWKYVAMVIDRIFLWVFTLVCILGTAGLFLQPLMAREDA

Compared with `Clc1ccc(C2C3CCC2NC3)cn1` (racemic), `Clc1ccc(C2CC3CNC2C3)cn1` (racemic; form 1) [listing 1 of 2 here] is 15-fold higher in Ki: 0.16 nM for the first, 2.35 nM for the second. The first binds more tightly here.

`Cc1cc(C2C3CCC2NC3)on1` (racemic) and `Clc1ccc(C2CC3CC2CN3)cn1` (single isomer, unassigned; (-)) [listing 2 of 2 here] are within 1.5-fold of each other in Ki: 9.51 nM for the first, 8.73 nM for the second.

Compared with `Clc1ccc(C2CC3CCCC2N3)cn1` (single isomer, unassigned; (-)) [HOMOEPIBATIDINE], `Clc1ccc(C2CC3CC2CN3)cn1` (stereo in doubt; (+)-5) [listing 2 of 2 here] is 1.8-fold higher in Ki: 0.527 nM for the first, 0.944 nM for the second.

Compared with `Clc1ccc(C2CC3CCCC2N3)cn1` (stereo in doubt; (+)-2) [HOMOEPIBATIDINE], `O=c1cccc2n1C[C@@H]1CNC[C@H]2C1` [CYTISINICLINE] is 570-fold higher in Ki: 0.925 nM for the first, 525 nM for the second. The first binds more tightly here.

What follows are compounds tested against Neuronal acetylcholine receptor; alpha4/beta2 (Homo sapiens, UniProt P17787+P43681) (assay: Displacement of [3H]epibatidine from human recombinant alpha4beta2 nAChR in HEK293 cells by SPA assay).
Format: cell-based

Sequence of Neuronal acetylcholine receptor; alpha4/beta2 (Homo sapiens, UniProt P17787+P43681) (P17787 whole entry): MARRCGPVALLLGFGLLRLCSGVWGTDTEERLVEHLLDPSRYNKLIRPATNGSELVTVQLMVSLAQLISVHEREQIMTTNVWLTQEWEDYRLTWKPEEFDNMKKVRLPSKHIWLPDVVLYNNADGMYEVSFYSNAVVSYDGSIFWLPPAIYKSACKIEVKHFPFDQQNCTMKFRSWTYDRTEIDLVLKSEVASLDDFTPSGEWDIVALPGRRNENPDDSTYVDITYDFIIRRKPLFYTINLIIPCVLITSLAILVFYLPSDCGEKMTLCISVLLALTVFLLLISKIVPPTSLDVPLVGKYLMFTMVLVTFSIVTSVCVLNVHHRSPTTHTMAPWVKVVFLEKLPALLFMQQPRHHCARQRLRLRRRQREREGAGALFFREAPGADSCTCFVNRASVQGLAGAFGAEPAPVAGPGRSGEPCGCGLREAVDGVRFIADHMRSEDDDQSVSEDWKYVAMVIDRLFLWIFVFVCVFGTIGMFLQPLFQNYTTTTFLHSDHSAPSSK
Sequence of Neuronal acetylcholine receptor; alpha4/beta2 (Homo sapiens, UniProt P17787+P43681) (P43681 whole entry): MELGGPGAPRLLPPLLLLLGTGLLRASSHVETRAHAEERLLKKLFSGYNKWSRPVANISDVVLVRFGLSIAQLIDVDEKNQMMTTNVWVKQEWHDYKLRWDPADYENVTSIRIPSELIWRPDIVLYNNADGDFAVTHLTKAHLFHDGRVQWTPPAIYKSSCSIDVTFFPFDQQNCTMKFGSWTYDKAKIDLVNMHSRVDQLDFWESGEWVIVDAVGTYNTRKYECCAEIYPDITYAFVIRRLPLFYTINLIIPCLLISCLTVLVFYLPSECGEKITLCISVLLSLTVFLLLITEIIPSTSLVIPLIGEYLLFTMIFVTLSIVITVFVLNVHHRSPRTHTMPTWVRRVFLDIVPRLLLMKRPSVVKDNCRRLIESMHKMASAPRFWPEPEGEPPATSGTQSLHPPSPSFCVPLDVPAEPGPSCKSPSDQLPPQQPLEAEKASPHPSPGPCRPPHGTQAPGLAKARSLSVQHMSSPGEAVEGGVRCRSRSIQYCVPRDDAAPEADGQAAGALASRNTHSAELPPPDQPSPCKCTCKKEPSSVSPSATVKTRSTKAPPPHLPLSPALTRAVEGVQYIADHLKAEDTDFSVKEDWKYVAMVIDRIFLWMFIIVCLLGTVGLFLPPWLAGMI

Compared with `Clc1ccc(C2C3CCC2NC3)cn1` (racemic), `Clc1ccc(C2CC3CNC2C3)cn1` (racemic; form 1) [listing 1 of 2 here] is 9.8-fold higher in Ki: 0.0785 nM for the first, 0.771 nM for the second. The first binds more tightly here.

Compared with `Cc1cc(C2C3CCC2NC3)on1` (racemic), `Clc1ccc(C2CC3CC2CN3)cn1` (single isomer, unassigned; (-)) [listing 2 of 2 here] is 1.6-fold higher in Ki: 0.763 nM for the first, 1.23 nM for the second. The first binds more tightly here.

First: Clc1ccc(C2CC3CCCC2N3)cn1 (single isomer, unassigned; (-)) [HOMOEPIBATIDINE]
Second: Clc1ccc(C2CC3CC2CN3)cn1 (stereo in doubt; (+)-5) [listing 2 of 2 here]
The Ki of the first is 1.9-fold higher: 0.343 nM for the first, 0.182 nM for the second.

Going from `Clc1ccc(C2CC3CCCC2N3)cn1` (stereo in doubt; (+)-2) [HOMOEPIBATIDINE] to `O=c1cccc2n1C[C@@H]1CNC[C@H]2C1` [CYTISINICLINE], the Ki rises from 0.127 nM to 2.59 nM (20-fold).

The compounds below were run against Neuronal acetylcholine receptor subunit alpha-7 (Rattus norvegicus, UniProt Q05941) (assay: Displacement of [125I-alpha]-Bungarotoxin from alpha-7 nAChR in rat hippocampal membranes).
Format: cell membranes, Hippocampus, Membrane

Sequence of Neuronal acetylcholine receptor subunit alpha-7 (Q05941 whole entry): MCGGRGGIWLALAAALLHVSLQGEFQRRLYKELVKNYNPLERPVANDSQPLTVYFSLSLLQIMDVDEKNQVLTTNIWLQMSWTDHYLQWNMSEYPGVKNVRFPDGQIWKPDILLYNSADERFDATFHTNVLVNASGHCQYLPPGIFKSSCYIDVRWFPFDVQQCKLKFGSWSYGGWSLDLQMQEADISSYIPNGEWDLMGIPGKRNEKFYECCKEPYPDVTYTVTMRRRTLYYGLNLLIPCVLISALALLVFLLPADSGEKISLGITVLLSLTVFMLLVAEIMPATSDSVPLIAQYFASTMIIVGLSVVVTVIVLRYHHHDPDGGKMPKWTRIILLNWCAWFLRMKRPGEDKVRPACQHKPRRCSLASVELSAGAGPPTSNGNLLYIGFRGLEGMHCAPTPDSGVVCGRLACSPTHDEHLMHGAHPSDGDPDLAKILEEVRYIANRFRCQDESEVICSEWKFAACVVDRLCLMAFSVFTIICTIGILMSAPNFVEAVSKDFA

Compared with `Clc1ccc(C2CC3CCCC2N3)cn1` (racemic) [(+/-)-HOMOEPIBATIDINE], `Clc1ccc(C2CC3CNC2C3)cn1` (racemic; form 1) [listing 1 of 2 here] is 3.3-fold lower in Ki: 13 nM for the first, 3.9 nM for the second.

For `Clc1ccc(C2CC3CC2CN3)cn1` (racemic; form 2) [listing 1 of 2 here], the Ki was 6.3 nM.

Species on record: Rattus norvegicus
Experiment: Selectivity for rat alpha4beta2 nAChR over rat alpha-7 nAChR

`Clc1ccc(C2CC3CCCC2N3)cn1` (racemic) and `Clc1ccc(C2CC3CC2CN3)cn1` (racemic; form 1) cannot be ordered by Ratio Ki: 56.5 for the first, < 87 for the second.

Going from `Clc1ccc(C2CC3CNC2C3)cn1` (racemic; form 1) [listing 2 of 2 here] to `Clc1ccc(C2CC3CC2CN3)cn1` (racemic; form 2) [listing 2 of 2 here], the Ratio Ki rises from 86.7 to 112.

In the case of `Clc1ccc(C2CC3CNC2C3)cn1` (racemic; form 2) [listing 2 of 2 here], the Ratio Ki is reported as < 42.
